# pIC50: −log10 of the molar value.
# Tests used:
# PI3K alpha = target: T1, PI3K alpha (Homo sapiens, UniProt P42336); assay: PI3K alpha kinase assay (Kinase-Glo luminescence); assay type: biochemical
# T1 construct: p85(iSH2) fusion partner (see partner chain) (N); His tag (C); made in house; host or cells: baculovirus; Tn5 (Trichoplusia ni) or TiniPro insect cells
# How it was run: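 Enzyme 10 nM PI3Kα EMV B1075; ATP 1 μM; PI 10 μg/mL; Tris-HCl pH 7.5 10 mM, MgCl2 3 mM, NaCl 50 mM, CHAPS 0.05%, DTT 1 mM; 60 min RT; Kinase-Glo luminescence; 4-parameter IC50 fit, 8 concentrations, single points.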
# [1] = test system: PKB Ser473 phosphorylation in Rat1-myr-HA-p110 beta cells; assay: Reverse protein array assay, PKB Ser473 phosphorylation in Rat1-myr-p110 beta cells; assay type: cell-based; settings: 0.5 h, pAkt Ser473, 30 minutes incubation, read-out: p-PKB IC50
# How it was run: (§1)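 Measured: PKB Ser473 phosphorylation by reverse protein array in Rat1 cells expressing myr-HA-p110 alpha, beta or delta, after 30 min compound treatment at 37 °C with 0.2% DMSO vehicle.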
# [2] = test system: PKB Ser473 phosphorylation in Rat1-myr-HA-p110 delta cells; assay: Reverse protein array assay, PKB Ser473 phosphorylation in Rat1-myr-p110 delta cells; assay type: cell-based; settings: read-out: p-PKB IC50
# How it was run: as §1
# PI3K delta = target: T2, PI3K delta (Homo sapiens, UniProt O00329); assay: PI3K delta kinase assay (Kinase-Glo luminescence); assay type: biochemical
# T2 construct: for the full-length p110-d subunit are generated and fused by overlapping PCR; p85(iSH2) fusion partner (see partner chain) (N); His tag (C); made in house; host or cells: baculovirus; Tn5 (Trichoplusia ni) or TiniPro insect cells
# How it was run: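 Lipid kinase activity of a His-tagged p110δ full-length/p85 iSH2 fusion (10 nM) toward bovine liver phosphatidylinositol (10 μg/mL) at 1 μM ATP, pH 7.5, 60 min, room temperature. ATP consumption is quantified by luciferase-based luminescence. Four-parameter logistic fitting gives IC50.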
# PI3K beta = target: T3, PI3K beta (Homo sapiens, UniProt P42338); assay: PI3K beta kinase assay (Kinase-Glo luminescence); assay type: biochemical
# T3 construct: for the full-length p110-b subunit are generated and fused by overlapping PCR; p85(iSH2) fusion partner (see partner chain) (N); His tag (C); made in house; host or cells: baculovirus; Tn5 (Trichoplusia ni) or TiniPro insect cells
# How it was run: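 Enzyme: BV949 p85(iSH2)-Gly linker-p110β FL-His, 25 nM. Substrate: PI 10 μg/mL. ATP: 1 μM, added to start. Buffer: Tris pH 7.5 10 mM, MgCl2 3 mM, NaCl 50 mM, CHAPS 0.05%, DTT 1 mM. RT, 60 min. Readout: Kinase-Glo. IC50 by 4-parameter fit.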
# T2 sequence (O00329 with tags, fused parts or gaps limits assumed): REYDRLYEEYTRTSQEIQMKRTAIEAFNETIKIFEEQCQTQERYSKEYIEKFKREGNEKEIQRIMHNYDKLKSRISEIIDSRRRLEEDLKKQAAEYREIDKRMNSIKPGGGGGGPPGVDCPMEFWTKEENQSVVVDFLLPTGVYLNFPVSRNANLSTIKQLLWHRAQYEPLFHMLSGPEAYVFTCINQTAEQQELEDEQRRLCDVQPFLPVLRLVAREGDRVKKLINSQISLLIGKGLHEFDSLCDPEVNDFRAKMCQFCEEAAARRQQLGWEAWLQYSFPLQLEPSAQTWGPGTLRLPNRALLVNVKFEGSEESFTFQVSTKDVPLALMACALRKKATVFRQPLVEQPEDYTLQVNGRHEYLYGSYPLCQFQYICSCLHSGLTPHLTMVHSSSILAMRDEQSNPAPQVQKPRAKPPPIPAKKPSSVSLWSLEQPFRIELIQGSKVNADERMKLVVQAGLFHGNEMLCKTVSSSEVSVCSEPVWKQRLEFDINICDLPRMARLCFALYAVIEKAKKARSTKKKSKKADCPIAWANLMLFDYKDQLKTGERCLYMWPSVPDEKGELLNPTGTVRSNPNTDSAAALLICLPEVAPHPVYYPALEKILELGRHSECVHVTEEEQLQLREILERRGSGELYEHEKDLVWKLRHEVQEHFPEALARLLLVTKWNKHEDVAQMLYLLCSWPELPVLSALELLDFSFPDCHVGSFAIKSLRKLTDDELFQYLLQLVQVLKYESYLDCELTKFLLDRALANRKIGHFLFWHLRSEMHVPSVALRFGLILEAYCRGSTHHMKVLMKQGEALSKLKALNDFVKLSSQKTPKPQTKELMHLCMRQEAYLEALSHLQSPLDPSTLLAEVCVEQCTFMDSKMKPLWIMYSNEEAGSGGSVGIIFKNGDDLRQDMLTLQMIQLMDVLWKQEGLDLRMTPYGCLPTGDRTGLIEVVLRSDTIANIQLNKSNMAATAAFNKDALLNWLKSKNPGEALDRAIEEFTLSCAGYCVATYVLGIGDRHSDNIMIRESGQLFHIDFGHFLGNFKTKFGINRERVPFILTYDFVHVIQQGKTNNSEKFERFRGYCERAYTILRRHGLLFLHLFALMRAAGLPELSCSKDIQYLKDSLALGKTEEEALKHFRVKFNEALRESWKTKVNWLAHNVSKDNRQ
# T1 sequence (P42336 with tags, fused parts or gaps limits assumed): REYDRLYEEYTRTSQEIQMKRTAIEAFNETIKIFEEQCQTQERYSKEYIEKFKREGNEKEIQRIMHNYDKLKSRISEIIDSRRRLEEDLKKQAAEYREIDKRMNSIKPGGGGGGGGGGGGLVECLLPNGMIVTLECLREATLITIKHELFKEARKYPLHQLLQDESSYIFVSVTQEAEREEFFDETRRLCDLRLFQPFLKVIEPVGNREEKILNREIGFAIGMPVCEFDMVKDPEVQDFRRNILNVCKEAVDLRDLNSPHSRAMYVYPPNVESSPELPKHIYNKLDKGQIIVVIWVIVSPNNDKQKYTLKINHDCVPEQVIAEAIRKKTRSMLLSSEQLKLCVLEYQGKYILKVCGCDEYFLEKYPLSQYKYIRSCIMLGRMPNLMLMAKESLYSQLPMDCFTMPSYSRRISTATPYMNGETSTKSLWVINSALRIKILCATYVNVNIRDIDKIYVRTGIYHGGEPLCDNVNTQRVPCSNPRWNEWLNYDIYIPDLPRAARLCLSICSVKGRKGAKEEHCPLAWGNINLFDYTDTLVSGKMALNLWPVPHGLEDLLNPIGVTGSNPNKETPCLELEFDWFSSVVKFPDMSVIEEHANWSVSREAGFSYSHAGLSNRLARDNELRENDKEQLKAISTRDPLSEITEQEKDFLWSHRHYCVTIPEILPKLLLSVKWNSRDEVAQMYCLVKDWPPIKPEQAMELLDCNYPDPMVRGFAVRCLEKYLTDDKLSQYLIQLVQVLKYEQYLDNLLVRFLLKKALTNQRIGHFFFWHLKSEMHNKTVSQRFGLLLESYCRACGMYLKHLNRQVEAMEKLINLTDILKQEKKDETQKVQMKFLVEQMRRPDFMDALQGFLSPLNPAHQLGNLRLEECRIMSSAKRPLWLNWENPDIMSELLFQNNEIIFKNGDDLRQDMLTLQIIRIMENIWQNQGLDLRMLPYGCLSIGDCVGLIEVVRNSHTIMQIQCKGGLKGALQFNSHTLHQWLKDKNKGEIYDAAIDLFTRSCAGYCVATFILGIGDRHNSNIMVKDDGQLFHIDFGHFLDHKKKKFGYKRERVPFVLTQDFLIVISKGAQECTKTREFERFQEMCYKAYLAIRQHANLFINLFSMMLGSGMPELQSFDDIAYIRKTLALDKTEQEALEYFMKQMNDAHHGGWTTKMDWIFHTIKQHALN
# T3 sequence (P42338 with tags, fused parts or gaps limits assumed): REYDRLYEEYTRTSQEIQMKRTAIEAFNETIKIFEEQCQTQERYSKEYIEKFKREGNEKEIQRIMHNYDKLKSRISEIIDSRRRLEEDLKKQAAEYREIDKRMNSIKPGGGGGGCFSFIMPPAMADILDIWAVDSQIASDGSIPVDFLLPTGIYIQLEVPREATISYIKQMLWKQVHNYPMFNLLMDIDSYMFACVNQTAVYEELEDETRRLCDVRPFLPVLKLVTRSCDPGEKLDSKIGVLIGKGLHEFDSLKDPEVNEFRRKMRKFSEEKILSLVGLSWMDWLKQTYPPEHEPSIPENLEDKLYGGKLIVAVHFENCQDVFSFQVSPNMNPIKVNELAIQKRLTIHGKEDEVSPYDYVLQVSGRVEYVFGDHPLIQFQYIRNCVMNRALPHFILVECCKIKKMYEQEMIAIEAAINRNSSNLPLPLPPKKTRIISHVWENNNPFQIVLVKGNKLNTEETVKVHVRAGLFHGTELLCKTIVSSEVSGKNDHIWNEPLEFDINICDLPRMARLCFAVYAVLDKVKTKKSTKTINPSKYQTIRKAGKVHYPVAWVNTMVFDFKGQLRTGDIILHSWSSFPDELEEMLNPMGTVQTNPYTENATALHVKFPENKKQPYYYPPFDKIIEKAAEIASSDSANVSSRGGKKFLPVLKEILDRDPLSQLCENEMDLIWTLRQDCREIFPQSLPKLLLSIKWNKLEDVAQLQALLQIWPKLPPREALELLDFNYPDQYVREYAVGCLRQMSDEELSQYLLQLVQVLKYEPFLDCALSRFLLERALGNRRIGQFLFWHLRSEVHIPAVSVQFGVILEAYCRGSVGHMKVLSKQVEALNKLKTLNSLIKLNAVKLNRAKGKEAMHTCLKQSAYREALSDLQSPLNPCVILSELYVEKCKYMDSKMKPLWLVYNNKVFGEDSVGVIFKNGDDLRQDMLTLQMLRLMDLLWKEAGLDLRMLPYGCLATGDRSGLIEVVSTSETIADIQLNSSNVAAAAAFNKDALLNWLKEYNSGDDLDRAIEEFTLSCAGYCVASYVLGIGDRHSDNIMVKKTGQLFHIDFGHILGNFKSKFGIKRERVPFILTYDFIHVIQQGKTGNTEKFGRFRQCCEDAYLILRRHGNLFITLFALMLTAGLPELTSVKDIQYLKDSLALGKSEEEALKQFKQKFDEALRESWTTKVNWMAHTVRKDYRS
structure (smiles),measurement,setting,value
"CNc1ncc(-c2ccc3ncc4c(c3c2)n(-c2cn(C(C)C)nc2C)c(=O)n4C)cc1CO [Example 171, 8-(5-Hydroxymethyl-6-methylamino-pyridin-3-yl)-1-(1-isopropyl-3-methyl-1H-pyrazol-4-yl)-3-methyl-1,3-dihydro-imidazo[4,5-c]quinolin-2-one]",pIC50,PI3K alpha,7.49
same,pIC50,[1],> 8.30
same,pIC50,[2],7.39
same,pIC50,PI3K delta,7.85
same,pIC50,PI3K beta,6.84
"Cc1nn(C)cc1-n1c(=O)n(C)c2cnc3ccc(-c4cncc(NC(C)C)c4)cc3c21 [Example 177.1, 1-(1,3-Dimethyl-1H-pyrazol-4-yl)-8-(5-isopropylamino-pyridin-3-yl)-3-methyl-1,3-dihydro-imidazo[4,5-c]quinolin-2-one]",pIC50,PI3K alpha,7.85
same,pIC50,[1],7.80
same,pIC50,[2],7.41
same,pIC50,PI3K delta,7.92
same,pIC50,PI3K beta,7.74
"CCn1cc(-n2c(=O)n(C)c3cnc4ccc(-c5cncc(NC)c5)cc4c32)c(C)n1 [Example 180.1, 1-(1-Ethyl-3-methyl-1H-pyrazol-4-yl)-3-methyl-8-(5-methylamino-pyridin-3-yl)-1,3-dihydro-imidazo[4,5-c]quinolin-2-one]",pIC50,PI3K alpha,7.39
same,pIC50,[1],> 8.30
same,pIC50,[2],7.39
same,pIC50,PI3K delta,7.70
same,pIC50,PI3K beta,7.38
"Cc1nn(C)cc1-n1c(=O)n(C)c2cnc3ccc(-c4cncc(OCCF)c4)cc3c21 [Example 181, 1-(1,3-Dimethyl-1H-pyrazol-4-yl)-8-[5-(2-fluoro-ethoxy)-pyridin-3-yl]-3-methyl-1,3-dihydro-imidazo[4,5-c]quinolin-2-one]",pIC50,PI3K alpha,7.92
same,pIC50,[1],7.27
same,pIC50,[2],7.21
same,pIC50,PI3K delta,7.62
same,pIC50,PI3K beta,7.89
"Cc1nn(C)cc1-n1c(=O)n(C)c2cnc3ccc(-c4cncc(OC(CF)CF)c4)cc3c21 [Example 182, 1-(1,3-Dimethyl-1H-pyrazol-4-yl)-8-[5-(2-fluoro-1-fluoromethyl-ethoxy)-pyridin-3-yl]-3-methyl-1,3-dihydro-imidazo[4,5-c]quinolin-2-one]",pIC50,PI3K alpha,8.05
same,pIC50,[1],7.74
same,pIC50,[2],7.25
same,pIC50,PI3K delta,8.10
same,pIC50,PI3K beta,7.96
"COc1cc(-c2ccc3ncc4c(c3c2)n(-c2cn(C(C)C)nc2C)c(=O)n4C)cnc1CO [Example 194.1, 8-(6-Hydroxymethyl-5-methoxy-pyridin-3-yl)-1-(1-isopropyl-3-methyl-1H-pyrazol-4-yl)-3-methyl-1,3-dihydro-imidazo[4,5-c]quinolin-2-one]",pIC50,PI3K alpha,7.47
same,pIC50,[1],7.09
same,pIC50,[2],6.84
same,pIC50,PI3K delta,7.82
same,pIC50,PI3K beta,6.49
"COc1cc(-c2ccc3ncc4c(c3c2)n(-c2cn(C)nc2Cl)c(=O)n4C)cnc1CO [Example 194.2, 1-(3-chloro-1-methyl-1H-pyrazol-4-yl)-8-(6-hydroxymethyl-5-methoxy-pyridin-3-yl)-3-methyl-1,3-dihydro-imidazo[4,5-c]quinolin-2-one]",pIC50,PI3K alpha,8.40
same,pIC50,[1],8.00
same,pIC50,[2],7.57
same,pIC50,PI3K delta,> 8.52
same,pIC50,PI3K beta,8.22
"CCOCc1ncc(-c2ccc3ncc4c(c3c2)n(-c2cn(C)nc2Cl)c(=O)n4C)cc1OC [Example 196.1, 1-(3-Chloro-1-methyl-1H-pyrazol-4-yl)-8-(6-ethoxymethyl-5-methoxy-pyridin-3-yl)-3-methyl-1,3-dihydro-imidazo[4,5-c]quinolin-2-one]",pIC50,PI3K alpha,7.54
same,pIC50,[1],6.99
same,pIC50,[2],7.24
same,pIC50,PI3K delta,8.30
same,pIC50,PI3K beta,7.11
"COc1ncc(-c2ccc3ncc4c(c3c2)n(-c2cn(C)nc2Cl)c(=O)n4C)cc1CO [Example 200, 1-(3-Chloro-1-methyl-1H-pyrazol-4-yl)-8-(5-hydroxymethyl-6-methoxy-pyridin-3-yl)-3-methyl-1,3-dihydro-imidazo[4,5-c]quinolin-2-one]",pIC50,PI3K alpha,8.05
same,pIC50,[1],> 8.30
same,pIC50,[2],8.15
same,pIC50,PI3K delta,8.00
same,pIC50,PI3K beta,7.89
"COCc1cc(-c2ccc3ncc4c(c3c2)n(-c2cn(C)nc2Cl)c(=O)n4C)cnc1OC [Example 201, 1-(3-Chloro-1-methyl-1H-pyrazol-4-yl)-8-(6-methoxy-5-methoxymethyl-pyridin-3-yl)-3-methyl-1,3-dihydro-imidazo[4,5-c]quinolin-2-one]",pIC50,PI3K alpha,8.40
same,pIC50,[1],7.72
same,pIC50,[2],8.00
same,pIC50,PI3K delta,> 8.52
same,pIC50,PI3K beta,8.22
"COc1cc(-c2ccc3ncc4c(c3c2)n(-c2cn(CCO)nc2C)c(=O)n4C)cnc1C [Example 211.1, 1-[1-(2-Hydroxy-ethyl)-3-methyl-1H-pyrazol-4-yl]-8-(5-methoxy-6-methyl-pyridin-3-yl)-3-methyl-1,3-dihydro-imidazo[4,5-c]quinolin-2-one]",pIC50,PI3K alpha,8.22
same,pIC50,[1],7.21
same,pIC50,[2],6.68
same,pIC50,PI3K delta,7.85
same,pIC50,PI3K beta,7.74
"Cc1nn(C(C)C)cc1-n1c(=O)n(C)c2cnc3ccc(-c4cncc(C(O)(CF)CF)c4)cc3c21 [Example 219, 8-[5-(2-Fluoro-1-fluoromethyl-1-hydroxy-ethyl)-pyridin-3-yl]-1-(1-isopropyl-3-methyl-1H-pyrazol-4-yl)-3-methyl-1,3-dihydro-imidazo[4,5-c]quinolin-2-one]",pIC50,PI3K alpha,7.92
same,pIC50,[1],6.30
same,pIC50,[2],6.53
same,pIC50,PI3K delta,7.89
same,pIC50,PI3K beta,7.31
"CCn1cc(-n2c(=O)n(C)c3cnc4ccc(-c5cncc(C6(C#N)CCC6)c5)cc4c32)c(C)n1 [Example 221.2, 1-{5-[1-(1-Ethyl-3-methyl-1H-pyrazol-4-yl)-3-methyl-2-oxo-2,3-dihydro-1H-imidazo[4,5-c]quinolin-8-yl]-pyridin-3-yl}-cyclobutanecarbonitrile]",pIC50,PI3K alpha,7.89
same,pIC50,[1],6.99
same,pIC50,[2],7.25
same,pIC50,PI3K delta,8.22
same,pIC50,PI3K beta,7.54
"CC(=O)Nc1cc(-c2ccc3ncc4c(c3c2)n(-c2cn(C)nc2C)c(=O)n4C)cnc1Cl [Example 222, N-{2-Chloro-5-[1-(1,3-dimethyl-1H-pyrazol-4-yl)-3-methyl-2-oxo-2,3-dihydro-1H-imidazo[4,5-c]quinolin-8-yl]-pyridin-3-yl}-acetamide]",pIC50,PI3K alpha,7.37
same,pIC50,[1],7.28
same,pIC50,[2],7.17
same,pIC50,PI3K delta,7.09
same,pIC50,PI3K beta,6.87
"Cc1nn(C)cc1-n1c(=O)n(C)c2cnc3ccc(-c4cnc(Cl)c(NS(C)(=O)=O)c4)cc3c21 [Example 223, N-{2-Chloro-5-[1-(1,3-dimethyl-1H-pyrazol-4-yl)-3-methyl-2-oxo-2,3-dihydro-1H-imidazo[4,5-c]quinolin-8-yl]-pyridin-3-yl}-methanesulfonamide]",pIC50,PI3K alpha,8.52
same,pIC50,[1],7.62
same,pIC50,[2],6.99
same,pIC50,PI3K delta,8.22
same,pIC50,PI3K beta,8.15
"Cc1nn(C)cc1-n1c(=O)n(C)c2cnc3ccc(-c4cnc(N)c(C(=O)NC(C)C)c4)cc3c21 [Example 225, 2-Amino-5-[1-(1,3-dimethyl-1H-pyrazol-4-yl)-3-methyl-2-oxo-2,3-dihydro-1H-imidazo[4,5-c]quinolin-8-yl]-N-isopropyl-nicotinamide]",pIC50,PI3K alpha,7.70
same,pIC50,[1],6.95
same,pIC50,[2],7.16
same,pIC50,PI3K delta,7.59
same,pIC50,PI3K beta,7.36
"COCCNC(=O)c1cc(-c2ccc3ncc4c(c3c2)n(-c2cn(C)nc2C)c(=O)n4C)cnc1N [Example 226, 2-Amino-5-[1-(1,3-dimethyl-1H-pyrazol-4-yl)-3-methyl-2-oxo-2,3-dihydro-1H-imidazo[4,5-c]quinolin-8-yl]-N-(2-methoxy-ethyl)-nicotinamide]",pIC50,PI3K alpha,7.48
same,pIC50,[1],6.34
same,pIC50,[2],6.36
same,pIC50,PI3K delta,7.68
same,pIC50,PI3K beta,7.15
"COc1ncc(-c2ccc3ncc4c(c3c2)n(-c2cn(C(C)C)nc2C)c(=O)n4C)c(OC)n1 [Example 234.3, 8-(2,4-Dimethoxy-pyrimidin-5-yl)-1-(1-isopropyl-3-methyl-1H-pyrazol-4-yl)-3-methyl-1,3-dihydro-imidazo[4,5-c]quinolin-2-one]",pIC50,PI3K alpha,7.82
same,pIC50,[1],7.82
same,pIC50,[2],7.52
same,pIC50,PI3K delta,> 8.52
same,pIC50,PI3K beta,6.82
"Cc1nn(C)cc1-n1c(=O)n(C)c2cnc3ccc(-c4cnc(CO)c(Cl)c4)cc3c21 [Example 238, 8-(5-Chloro-6-hydroxymethyl-pyridin-3-yl)-1-(1,3-dimethyl-1H-pyrazol-4-yl)-3-methyl-1,3-dihydro-imidazo[4,5-c]quinolin-2-one]",pIC50,PI3K alpha,7.54
same,pIC50,[1],6.94
same,pIC50,[2],6.49
same,pIC50,PI3K delta,6.33
same,pIC50,PI3K beta,6.99

# Reference: US20140005163A1 (NOVARTIS AG, priority 2010, published 2014)
